From PubChem BioAssay (NCI)
Values joined by “and” are separate entries in the source; they are usually repeats but may differ in a detail not shown here. Equal values may be shown once.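 96-well plates; 48 h exposure; 5 concentrations. Endpoints by linear interpolation between flanking doses. Not reached: highest tested concentration assigned. Abbreviation: GI50, concentration required for 50% inhibition of growth. TGI denotes the concentration required for complete inhibition of growth.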

Key:
Experiment in all cases: NCI anticancer screen, dose series, 48 h
[1] = tested on: PC-3 prostate
[2] = tested on: DU-145 prostate
[3] = tested on: A498 renal
[4] = tested on: SK-OV-3 ovarian
[5] = tested on: M14 melanoma
[6] = tested on: MDA-MB-435
[7] = tested on: HL-60(TB) leukemia
[8] = tested on: SNB-75 CNS
[9] = tested on: EKVX NSCLC
[10] = tested on: SK-MEL-28 melanoma

Row | SMILES | GI50 [1] | TGI [1] | GI50 [2] | TGI [2] | GI50 [3] | TGI [3] | GI50 [4] | TGI [4] | GI50 [5] | TGI [5] | GI50 [6] | TGI [6] | GI50 [7] | TGI [7] | GI50 [8] | TGI [8] | GI50 [9] | TGI [9] | GI50 [10] | TGI [10]
1 | Cc1ccc2c(C(C[N+](=O)[O-])c3ccccc3)c(-c3ccccc3)[nH]c2c1 (stereo not given) | 20.9 µM | > 95 µM | 34 µM | > 95 µM | 24.9 µM | > 95 µM | 33.8 µM | > 95 µM | 16 µM | > 95 µM | 4.1 µM | 29.2 µM | 22.6 µM | 57.2 µM | 2.87 µM | 43.6 µM | 75.9 µM | > 95 µM | > 95 µM | > 95 µM
2 | C[C@@H]1C[C@H](N)C[C@H](c2ccncc2NC(=O)c2ccc(F)c(-c3c(F)cccc3F)n2)C1 | 3.83 µM and 2.68 µM | 17.5 µM and > 10 µM | 13.5 µM and > 10 µM | 26.3 µM and > 10 µM | 11.6 µM and 4.53 µM | 24.8 µM and > 10 µM | 12.7 µM and > 10 µM | 26.8 µM and > 10 µM | 12.9 µM and 2.35 µM | 27.2 µM and > 10 µM | 10.4 µM and 9.19 µM | 22.1 µM and > 10 µM | 2.73 µM and 1.48 µM | 12.1 µM and > 10 µM | 2.55 µM and 4.3 µM | 18.2 µM and > 10 µM | 4.35 µM and > 10 µM | 21.1 µM and > 10 µM | 10.4 µM and > 10 µM | 22.6 µM and > 10 µM
3 | O=C(c1c(F)c(F)c(F)c(F)c1F)c1c(F)c(F)c(F)c(F)c1F |  | 3.39 µM |  | 4.64 µM |  | 9.16 µM |  | 5.57 µM |  | 5.97 µM |  | 3.21 µM |  | > 100 µM |  | 3.48 µM |  | 4.06 µM |  | 7.92 µM
4 | Cn1ncc(Cl)c1-c1cc(C(=O)N[C@H](CN)Cc2cccc(F)c2)sc1Cl | 0.32 µM and 0.554 µM | > 5.56 µM and 10.2 µM | 2.28 µM and 5.86 µM | > 10 µM and 19.4 µM | 0.126 µM and 0.104 µM | 0.705 µM and 0.779 µM | 0.242 µM and 0.34 µM | 4.58 µM and 7.05 µM | 1.1 µM and 2 µM | 3.14 µM and 6.49 µM | 1.31 µM and 2.36 µM | > 5.99 µM and 12.7 µM | > 3.71 µM and 2.48 µM | > 6.27 µM and 8.32 µM | 0.139 µM and 0.131 µM | 1.48 µM and 2.56 µM | 3.24 µM | > 10 µM | 1.43 µM and 1.7 µM | 4.85 µM and 9.04 µM
5 | CC1=C(C#N)C23C(=O)N(c4ccccc4)C(=O)C2=C(O)C=CC3(O)N1Cc1ccc(Cl)cc1Cl (stereo not given) | 4.68 µM | 17.1 µM | 2.7 µM | 11.6 µM | 5.79 µM | 18.1 µM | 11.2 µM | 23.2 µM | 3.43 µM | 16.1 µM | 1.89 µM | 4.68 µM | 3.18 µM | 6.82 µM | 4.09 µM | 16.7 µM | 9.43 µM | 21.3 µM | 1.53 µM | 3.4 µM
6 | O=C(O)c1cccc(S(=O)(=O)NCCO)c1 |  | > 100 µM |  | > 100 µM |  | > 100 µM |  | > 100 µM |  | > 100 µM |  | > 100 µM |  | > 100 µM |  | > 100 µM |  | > 100 µM |  | > 100 µM
7 | CC1=C([Te]c2ccccc2)C(=O)c2ccccc2C1=O | 0.297 µM | 2.03 µM | 0.424 µM | 1.58 µM | 0.239 µM | 0.977 µM | 0.335 µM | 1.28 µM | 0.424 µM | 1.76 µM | 1.8 µM | 4.02 µM | 0.326 µM | 1.54 µM | 0.207 µM | 0.898 µM | 0.207 µM | 0.76 µM | 1.25 µM | 3.11 µM
